{"source": "patent US20160243136A1", "about": "“PHARMACEUTICAL FORMULATIONS CONTAINING MITOCHONDRIALLY TARGETED ANTIOXIDANTS” (Mitotech SA, priority 2013, published 2016)", "key": {"[1]": {"test_system": "renal tubular cells (RTC)", "assay": "In vitro inflammation model: renal tubular cells co-cultivated with bacterial lysate-activated leukocytes", "format": "cell-based, rat", "conditions": "for TNF release in RTC-leukocyte co-culture: activated leukocytes (LC+BL); for renal cell death (Annexin V-positive): 48 hr exposure to activated leukocytes, pre-incubation with drug", "procedure": "Kidneys from 1-3 day old rats were excised under aseptic conditions. The tissue was blended and dissociated by collagenase treatment (0.5%, 30 min at 37° C.). The final suspension was centrifuged for 5 min at 50 g. The pellet was resuspended in about 10 ml of DMEM/F12 (Gibco, USA) supplemented with 10% FCS (Gibco, USA) and kept for 2 min, after which the supernatant was transferred to another tube and the pellet was repeatedly resuspended. After 10 min, the renal tubules were pelleted and dissociated cells remaining in the suspension were discarded. The pellet was resuspended in DMEM/F12 with 10% FCS and seeded onto 24-well plates or onto coverslips placed in 35-mm glass-bottom Petri dishes.\nE. coli strain No. 85 was cultured overnight in a cultivation medium containing 1% tryptone, 0.5% yeast extract and 1% NaCl (Sigma-Aldrich, USA). The medium, containing roughly 10^9 colony-forming units (CFU) per ml, was pelleted at 300 g for 3 min. The bacterial lysate was prepared by diluting 30 ml of an overnight (ON) culture and diluting the precipitate in 3 ml of 0.9% NaCl followed by autoclaving for 1.5 hr at 120° C.\n5 ml heparinized blood collected from the jugular vein of adult male rats was carefully layered over 5 ml of Ficoll-Urografin (density of 1.077 g/cm^3), and centrifuged for 30 min at 200 g. This procedure results in erythrocyte pelleting, while the mononuclear fraction of leukocytes forms an interphase ring on the Ficoll surface, which was carefully collected. Leukocytes were transferred into another tube and centrifuged for 3 min at 200 g. The resultant pellet was resuspended in 5 ml of DMEM/F12. After cell counting in a hemocytometer, the cells were diluted to a final concentration of about 1×10^5 cells per ml.\nIn a two-day old renal cell culture, the medium was substituted with DMEM/F12 (400 μl per well, 1600 μl per dish), supplemented with (depending on the purpose): GSK-3β inhibitor LiCl (9 mM) (Sigma-Aldrich, USA), water-soluble antioxidant Trolox (50 μM, 100 μM) (Sigma-Aldrich, USA), MTAs 10-(6-plastoquinonyl)decyl-triphenylphosphonium (SkQ1), synthesized according to Antonenko et al. (2008) Biochemistry (Mosc) 73:1273-87), 10 nM, 100 nM), and 10-(6′-plastoquinonyl) decylrhodamine 19 SkQR1), synthesized according to Antonenko (2008), (1 nM, 10 nM, or 100 nM). Renal cells were incubated for 2 hr in this medium, followed by supplementation with leukocytes or neutrophils in DMEM/F12, or DMEM/F12, alone, in the control sample (400 μl per well, 1600 μl per dish). Simultaneously, the bacterial lysate or lipopolysaccharide (100 ng/ml, LPS, Sigma-Aldrich, USA) solution in DMEM/F12 and DMEM/F12 alone in the control sample (100 μl per well, 400 μl per dish) were added. Renal cells, leukocytes (neutrophils) were co-cultivated for 24 or 48 hr with bacterial lysate or LPS. Cell death (both necrotic and apoptotic) rate was evaluated using Annexin-V FITC Kit (Invitrogen, USA).\n(§1) The ROS-sensitive fluorescent probe 2,7-DCF-DA (Molecular Probes, USA) dissolved in DMEM/F12 without bicarbonate (final concentration 10 μM) was added to renal cells (500 μl per well of 24-well plate, 2 ml per dish) and incubated for 15 min at 37° C. followed by a wash with DMEM/F12 without bicarbonate. MDA was determined as in (Mihara and Uchiyama (1978) Anal. Biochem. 86:271-8). Fluorescent probe, DAF-2-DA (Calbiochem, San Diego, Calif., USA) was used for NO determination in living cells. The procedure was the same as for 2,7-DCF-DA. The nitrite/nitrate concentration (as products of NO oxidation) in culture media was determined using Nitrite/Nitrate Assay Kit (Sigma-Aldrich, USA). TNFα was determined using the kit Rat TNFα ELISA Ready-SET-Go (Ebioscience, USA).\nRenal cells were imaged with an LSM510 inverted confocal microscope (Carl Zeiss Inc., Jena, Germany) with excitation at 488 nm and emission collected at 500 nm-530 nm with a pinhole diameter of 150 μm. Images were processed using ImageJ software (NIH, Bethesda, Md., USA)."}, "rat model of APN": {"test_system": "rat model of APN", "assay": "In vivo rat model of acute pyelonephritis (APN), bacteria introduced in the bladder", "procedure": "An in vivo experimental model of APN was used where bacteria are introduced in the bladder of rat (Gupta et al. (1995) J. Med. Microbiol. 43:33-36). Experiments were performed on outbred white female rats (180-200 g) fed ad libitum. Animal protocols were approved by the Institutional Review Boards. Rats were anesthetized with chloral hydrate (300 mg/kg, intraperitoneally(ip)). The animals were infected intraurethrally using a soft Intramedic non-radio-opaque polyethylene catheter (Clay Adams, USA). The inoculum (5 ml per kg, 1×10^8 CFU/ml of rat fecal bacterial composition) was injected slowly to avoid any leakage […]. Control animals were untreated. The therapeutic protocol of SkQR1 used to treat this pathology was as follows: […], with subsequent injections of the same amount of SkQR1 at 12, 24, 36 and 48 hrs; in total, each animal received 500 nmol SkQR1 per kg. […]\nKidney mitochondria were isolated by homogenization and differential centrifugation in a medium containing 250 mM sucrose, 20 mM HEPES-KOH, 1 mM EGTA and 0.1% BSA, pH7.4. Total mitochondrial protein was determined using a bicinchoninic acid protein assay kit (Sigma-Aldrich, USA). The mitochondria from cultured kidney cells were isolated by the same protocol.\nas §1\nThe kidney was isolated immediately after sacrificing the animal and perfused with ice-cold PBS. It was then fixed in a 10% neutral buffered formalin solution, embedded in paraffin and used for histopathological examination. Five micrometer thick sections were cut, deparaffinized, hydrated, and stained with hematoxylin and eosin. The renal sections were examined in blinded fashion for inflammation and infiltration by leukocytes in the kidneys of all treated animals. A minimum of 10 fields for each kidney slide were examined and scored for pathologic severity.\nThe manifestation of inflammatory indicators (i.e., a number of infiltrated leukocytes in every layer and the presence of abscesses) under APN was evaluated using the following scale: 0, none; 1, 5-50 leukocytes in the view field; […]; 4, abscesses with pus-necrotic content. The distribution of inflammatory changes (i.e., comparative analysis of infiltration and abscesses) was evaluated by the following criteria: 0, none in any layer; 1, infiltration in the medullar layer; 2, infiltration reaching the cortex.\nKidney homogenates for MPO determination were centrifuged at 20000 g 15 min, the pellets were resuspended in 50 mM K-phosphate buffer containing 0.5% CTAB. Resulted samples were frozen and thawed three times and then centrifuged at 10600 g 10 min. Supernatants were analyzed for MPO activity in chromogenic reaction with o-phenylenediamine (OPD). 100 μl sample was mixed with 100 μl substrate buffer (25 mM Na-citrate, 50 mM Na-phosphate, 0.45 mg/ml OPD, 0.1% H2O2, pH 5.0) and was incubated 15 min at room temperature and then OD was detected at 492 nm.\nSamples of kidney homogenates were loaded onto 15% Tris-glycine polyacrylamide gels (10-20 μg of total protein per lane). After electrophoresis, gels were blotted onto PVDF membranes (Amersham Pharmacia Biotech, UK). […]"}}, "note": "Entries after “also recorded” stand apart in the source; their conditions may differ."}
{"smiles": "Cc1c(C)c2c(c(C)c1O)CCC(C)(C(=O)O)O2", "note": "(centres unmarked) [Trolox, reference compound]", "values": [{"measurement": "ROS production in renal cells (DCF fluorescence)", "setting": "[1]; 100 μM, pretreatment 2 hr, co-cultivation with activated leukocytes", "value": "suppression of ROS production after co-cultivation with activated leukocytes to levels close to those observed on controls"}, {"measurement": "TNF release in RTC-leukocyte co-culture", "setting": "[1]", "value": "did not have a significant effect"}]}
{"smiles": "CC/N=c1/cc2oc3cc(NCC)c(C)cc3c(-c3ccccc3C(=O)OCCCCCCCCCCC3=CC(=O)C(C)=C(C)C3=O)c-2cc1C", "note": "[SkQR1, 10-(6′-plastoquinonyl) decylrhodamine 19]", "values": [{"measurement": "number of leukocytes in the blood", "setting": "rat model of APN; 3 days after infection, SkQR1", "value": "prevented an elevation"}, {"measurement": "abscesses in kidneys of pyelonephritic rats", "setting": "rat model of APN; SkQR1 100 nmoles/kg ip at 1, 12, 24, 36, 48 hr after bacteria", "value": "significantly less prevalent"}, {"measurement": "MDA concentration in whole kidney tissue", "setting": "rat model of APN; SkQR1 100 nmoles/kg ip x5", "value": "significantly lower"}, {"measurement": "leukocyte infiltration in all kidney layers and spreading of the inflammatory process", "setting": "rat model of APN; SkQR1 100 nmoles/kg ip x5, histology", "value": "inhibited"}, {"measurement": "kidney tissue concentration of TNFα", "setting": "rat model of APN; SkQR1-treated pyelonephritic rats vs APN rats without SkQR1", "value": "lower than in APN rats without SkQR1"}, {"measurement": "activation of pro-inflammatory signaling pathways in peripheral leukocytes", "setting": "rat model of APN; SkQR1-treated rats", "value": "suppressed"}, {"measurement": "other inflammation markers in blood (FIG. 8A-8C)", "setting": "rat model of APN; SkQR1-treated rats", "value": "decreased"}, {"measurement": "animal survival", "setting": "rat model of APN; SkQR1 during first two days after infection", "value": "significantly greater"}, {"measurement": "Bcl-2 changes in isolated kidney mitochondria (weaker 26 kD band, stronger 15 kD band)", "setting": "rat model of APN; Western blot", "value": "diminished"}, {"measurement": "level of IKB in leukocytes", "setting": "rat model of APN; Western blot, lower in untreated pyelonephritic rats", "value": "lower in untreated pyelonephritic rats but not in SkQR1-treated rats"}, {"measurement": "Bcl-2 level in total kidney homogenates", "setting": "rat model of APN; Western blot, lowering seen with pyelonephritis", "value": "absent in pyelonephritic rats receiving SkQR1"}, {"measurement": "expression of toll receptors in different regions of the kidney", "setting": "rat model of APN; activated under APN", "value": "normal expression"}, {"measurement": "tissue activity of myeloperoxidase (MPO), index of neutrophil infiltration", "setting": "rat model of APN; kidney, SkQR1 100 nmoles/kg ip x5", "value": "significantly inhibited"}, {"measurement": "ROS production (DCF fluorescence) in blood leukocytes", "setting": "rat model of APN; leukocytes from pyelonephritic rats receiving SkQR1 vs untreated", "value": "lower than in untreated animals"}, {"measurement": "ROS production in renal cells (DCF fluorescence)", "setting": "[1]; 10 nM, pretreatment 2 hr, co-cultivation with activated leukocytes", "value": "suppression of ROS production after co-cultivation with activated leukocytes to levels close to those observed on controls"}, {"measurement": "renal cell death (Annexin V-positive)", "setting": "[1]", "value": "more pronounced than that afforded by the traditional water-soluble antioxidant, Trolox; also recorded: highest efficiency"}, {"measurement": "TNF release in RTC-leukocyte co-culture", "setting": "[1]", "value": "did not have a significant effect"}]}
{"smiles": "[Cl-].[Li+]", "note": "[LiCl, reference compound]", "values": [{"measurement": "renal cell death (Annexin V-positive)", "setting": "[1]", "value": "protected renal cells from death and its effect was more profound than of Trolox"}, {"measurement": "ROS production in renal cells (DCF fluorescence)", "setting": "[1]; LiCl pre-treatment (9 mM)", "value": "had an antioxidative effect"}, {"measurement": "TNF release in RTC-leukocyte co-culture", "setting": "[1]", "value": "did not have a significant effect"}]}
{"smiles": "c1ccc2c(c1)[I+]c1ccccc1-2", "note": "[DPI, diphenyleneiodonium, reference compound]", "values": [{"measurement": "ROS production inside renal cells (DCF fluorescence)", "setting": "[1]; 0.5 μM", "value": "inhibited the ROS production"}]}
